From patent publication US8367648B2, “Substituted 16,17-annellated steroid compounds for use in womens healthcare” (MSD OSS B.V., priority 2009, dated 2013)
Where two headings read alike, the source gives them in different places.

Key:
[1] = biological target: T1, progesterone receptor B (PR-B) (Homo sapiens, UniProt P06401); assay: In vitro nuclear receptor profile, PR-B antagonism; assay type: cell-based; conditions: for PR-B ant anteff: antagonist efficacy; for IC50: antagonist mode, read-out: PR-B ant IC50
T1 sequence (P06401 1-933): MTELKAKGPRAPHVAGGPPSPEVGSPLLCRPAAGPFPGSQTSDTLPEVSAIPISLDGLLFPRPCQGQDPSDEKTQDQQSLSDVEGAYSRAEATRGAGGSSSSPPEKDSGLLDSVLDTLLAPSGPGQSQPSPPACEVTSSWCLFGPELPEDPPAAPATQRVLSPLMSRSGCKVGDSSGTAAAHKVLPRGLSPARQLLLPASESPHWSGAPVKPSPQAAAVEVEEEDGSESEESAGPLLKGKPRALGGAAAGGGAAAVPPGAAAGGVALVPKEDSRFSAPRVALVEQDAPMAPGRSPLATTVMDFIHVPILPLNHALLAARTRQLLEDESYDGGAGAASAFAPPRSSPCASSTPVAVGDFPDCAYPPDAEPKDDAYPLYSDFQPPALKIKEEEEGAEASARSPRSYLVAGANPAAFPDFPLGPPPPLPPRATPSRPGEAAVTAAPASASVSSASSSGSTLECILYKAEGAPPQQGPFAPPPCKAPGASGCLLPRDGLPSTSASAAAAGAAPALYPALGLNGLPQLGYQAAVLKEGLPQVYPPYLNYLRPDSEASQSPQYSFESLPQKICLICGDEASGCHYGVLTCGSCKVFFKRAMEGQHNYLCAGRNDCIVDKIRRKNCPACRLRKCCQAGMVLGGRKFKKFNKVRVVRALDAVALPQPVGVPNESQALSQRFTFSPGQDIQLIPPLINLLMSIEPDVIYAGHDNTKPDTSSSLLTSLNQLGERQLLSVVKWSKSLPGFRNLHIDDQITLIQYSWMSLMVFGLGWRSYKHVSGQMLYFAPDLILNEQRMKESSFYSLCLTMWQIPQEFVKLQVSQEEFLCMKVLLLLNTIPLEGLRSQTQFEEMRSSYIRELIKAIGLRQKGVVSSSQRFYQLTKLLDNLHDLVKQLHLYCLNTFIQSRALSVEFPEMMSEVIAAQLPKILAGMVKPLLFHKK

ovulation [2] = assay: Ovulation inhibition in intact cycling female rats; assay type: in vivo, rat
PR-A [3] = biological target: T2, PR-A (Homo sapiens, UniProt P06401); assay: In vitro nuclear receptor profile, PR-A antagonism; assay type: cell-based; conditions: for PR-A ant anteff: antagonist efficacy; for IC50: antagonist mode, read-out: PR-A ant IC50
T2 sequence (P06401 1-769 isoform P06401-2): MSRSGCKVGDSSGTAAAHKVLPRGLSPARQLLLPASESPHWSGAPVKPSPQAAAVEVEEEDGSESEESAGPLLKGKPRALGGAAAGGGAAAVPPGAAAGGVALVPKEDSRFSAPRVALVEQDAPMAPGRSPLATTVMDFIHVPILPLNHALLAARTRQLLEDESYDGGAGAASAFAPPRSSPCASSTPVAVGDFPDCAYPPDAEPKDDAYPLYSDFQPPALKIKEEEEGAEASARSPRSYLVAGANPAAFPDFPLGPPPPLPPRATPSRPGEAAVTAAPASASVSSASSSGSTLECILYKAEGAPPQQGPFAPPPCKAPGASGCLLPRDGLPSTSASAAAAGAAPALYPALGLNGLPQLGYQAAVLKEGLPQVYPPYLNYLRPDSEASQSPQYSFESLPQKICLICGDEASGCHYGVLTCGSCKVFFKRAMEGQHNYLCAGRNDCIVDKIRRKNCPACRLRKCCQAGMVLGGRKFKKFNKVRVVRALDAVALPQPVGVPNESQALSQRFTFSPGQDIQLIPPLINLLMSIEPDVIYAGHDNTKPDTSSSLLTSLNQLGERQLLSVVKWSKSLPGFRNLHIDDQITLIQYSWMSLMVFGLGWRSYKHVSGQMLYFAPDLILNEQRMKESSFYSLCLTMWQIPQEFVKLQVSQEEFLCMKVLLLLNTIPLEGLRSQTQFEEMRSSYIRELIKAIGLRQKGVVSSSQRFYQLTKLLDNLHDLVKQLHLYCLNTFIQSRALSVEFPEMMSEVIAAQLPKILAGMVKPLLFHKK

[4] = system: estrogen receptors in the CNS; assay: Lordosis model (facilitation of female sexual behaviour); assay type: in vivo
[5] = system: LH/FSH, uterine tissue, vaginal tissue, cholesterol metabolism, bone; assay: 4-week multiple dose study in ovariectomized female rats; assay type: in vivo, rat
vaginal tissue = assay: Allen-Doisy (rat); assay type: in vivo
ERβ [6] = biological target: T3, ERβ (Homo sapiens, UniProt Q92731); assay: In vitro nuclear receptor profile, ERβ antagonism; assay type: cell-based; conditions: for ERβ ant anteff: antagonist efficacy; for IC50: antagonist mode, read-out: ERβ ant IC50
T3 sequence (Q92731 whole entry): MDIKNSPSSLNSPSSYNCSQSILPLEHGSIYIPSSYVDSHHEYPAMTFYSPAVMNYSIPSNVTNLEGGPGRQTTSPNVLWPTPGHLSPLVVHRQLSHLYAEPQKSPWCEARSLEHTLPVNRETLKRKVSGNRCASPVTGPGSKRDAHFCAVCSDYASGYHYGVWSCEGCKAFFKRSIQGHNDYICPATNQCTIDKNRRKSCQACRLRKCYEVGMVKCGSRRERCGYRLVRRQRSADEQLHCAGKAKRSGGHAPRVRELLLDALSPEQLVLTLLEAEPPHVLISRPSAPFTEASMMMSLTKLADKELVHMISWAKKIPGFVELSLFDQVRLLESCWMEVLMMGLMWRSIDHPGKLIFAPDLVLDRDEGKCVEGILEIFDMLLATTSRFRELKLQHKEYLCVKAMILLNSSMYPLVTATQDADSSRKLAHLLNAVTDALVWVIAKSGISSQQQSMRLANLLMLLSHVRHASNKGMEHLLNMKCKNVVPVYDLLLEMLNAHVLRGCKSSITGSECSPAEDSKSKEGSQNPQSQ

ERα [7] = biological target: T4, ERα (Homo sapiens, UniProt P03372); assay: In vitro nuclear receptor profile, ERα agonism; assay type: cell-based; conditions: for ERα ago eff: agonist efficacy
T4 sequence (P03372 1-595): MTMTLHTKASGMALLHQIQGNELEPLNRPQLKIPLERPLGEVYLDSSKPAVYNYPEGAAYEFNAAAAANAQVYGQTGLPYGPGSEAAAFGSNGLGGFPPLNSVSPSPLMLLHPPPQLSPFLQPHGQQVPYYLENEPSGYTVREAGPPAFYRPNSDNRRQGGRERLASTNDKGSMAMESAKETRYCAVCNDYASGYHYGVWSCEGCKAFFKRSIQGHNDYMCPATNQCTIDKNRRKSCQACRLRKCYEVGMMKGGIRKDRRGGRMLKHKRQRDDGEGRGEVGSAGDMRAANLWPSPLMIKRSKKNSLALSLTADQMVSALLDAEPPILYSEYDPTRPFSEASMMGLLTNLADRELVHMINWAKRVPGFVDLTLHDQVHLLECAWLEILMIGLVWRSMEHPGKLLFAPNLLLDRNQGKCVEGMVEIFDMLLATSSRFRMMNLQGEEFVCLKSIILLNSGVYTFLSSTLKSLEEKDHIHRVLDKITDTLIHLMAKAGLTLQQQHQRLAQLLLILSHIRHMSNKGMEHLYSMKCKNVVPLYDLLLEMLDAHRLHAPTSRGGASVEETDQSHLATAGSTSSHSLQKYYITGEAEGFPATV

[8] = biological target: T1, progesterone receptor B (PR-B); assay: In vitro nuclear receptor profile, PR-B agonism; assay type: cell-based
ERα [9] = biological target: T4, ERα; assay: In vitro nuclear receptor profile, ERα antagonism; assay type: cell-based
ERβ [10] = biological target: T3, ERβ; assay: In vitro nuclear receptor profile, ERβ agonism; assay type: cell-based; conditions: agonist mode; read-out: ERβ ago EC50
bone mineral density = assay: AOST BMD (rat); assay type: in vivo
[11] = 4-week phase I study, plasma exposure and endometrial biopsies; assay type: in vivo, human; conditions: plasma; female human volunteers; formed by metabolism from oral 10 mg daily Org 41621, 4 weeks; read-out: blood plasma level Cmax
endometrium = assay: as above; assay type: in vivo, human; conditions: biopsies on day 29, female human volunteers
[12] = Embryofetal toxicity study in pregnant rats
PR-A [13] = biological target: T2, PR-A; assay: In vitro nuclear receptor profile, PR-A agonism; assay type: cell-based; conditions: for EC50: agonist mode, read-out: PR-A ago EC50
ovulation [14] = assay: Ovulation inhibition in intact cycling female monkeys; assay type: in vivo, Macaca arctoides and Macaca fascicularis; conditions: 21 days once-a-day oral dosing in gelatine/mannitol
Experimental: The minimal active dose (MAD) for ovulation inhibition upon oral dosing in gelatine/mannitol was established at <=0.1 mg/kg per day.

[15] = rat, in vivo
Solubility in water = assay type: physicochemical; conditions: in comparison to Org 41621
Description: As the diseases in which the compounds can be used are in the area of women's health care the vaginal route of administration is also contemplated. A medicine can be formulated in the form of a device for vaginal drug delivery such as in admixture with a flexible polymer for a removable intrauterine device or a removable vaginal device, for example in the form of a ring. Polymers or other additives can also be used for a parenteral implant, such as a subcutaneous implant for extended release of a drug according to the invention. As such, extended release formulations or other formulations aimed at particular absorption profiles are also within the scope of the invention. […] This offers an advantage for uses in the manufacture of medicines wherein higher solubility is desirable, such as a drinkable or injectable formulation.

androgen receptor (AR) = biological target: T5, androgen receptor (AR) (Homo sapiens, UniProt P10275); assay: Androgen receptor antagonism in vitro; assay type: cell-based; conditions: antagonist; read-out: IC50 as antagonist for the androgen receptor (AR)
T5 sequence (P10275 1-920): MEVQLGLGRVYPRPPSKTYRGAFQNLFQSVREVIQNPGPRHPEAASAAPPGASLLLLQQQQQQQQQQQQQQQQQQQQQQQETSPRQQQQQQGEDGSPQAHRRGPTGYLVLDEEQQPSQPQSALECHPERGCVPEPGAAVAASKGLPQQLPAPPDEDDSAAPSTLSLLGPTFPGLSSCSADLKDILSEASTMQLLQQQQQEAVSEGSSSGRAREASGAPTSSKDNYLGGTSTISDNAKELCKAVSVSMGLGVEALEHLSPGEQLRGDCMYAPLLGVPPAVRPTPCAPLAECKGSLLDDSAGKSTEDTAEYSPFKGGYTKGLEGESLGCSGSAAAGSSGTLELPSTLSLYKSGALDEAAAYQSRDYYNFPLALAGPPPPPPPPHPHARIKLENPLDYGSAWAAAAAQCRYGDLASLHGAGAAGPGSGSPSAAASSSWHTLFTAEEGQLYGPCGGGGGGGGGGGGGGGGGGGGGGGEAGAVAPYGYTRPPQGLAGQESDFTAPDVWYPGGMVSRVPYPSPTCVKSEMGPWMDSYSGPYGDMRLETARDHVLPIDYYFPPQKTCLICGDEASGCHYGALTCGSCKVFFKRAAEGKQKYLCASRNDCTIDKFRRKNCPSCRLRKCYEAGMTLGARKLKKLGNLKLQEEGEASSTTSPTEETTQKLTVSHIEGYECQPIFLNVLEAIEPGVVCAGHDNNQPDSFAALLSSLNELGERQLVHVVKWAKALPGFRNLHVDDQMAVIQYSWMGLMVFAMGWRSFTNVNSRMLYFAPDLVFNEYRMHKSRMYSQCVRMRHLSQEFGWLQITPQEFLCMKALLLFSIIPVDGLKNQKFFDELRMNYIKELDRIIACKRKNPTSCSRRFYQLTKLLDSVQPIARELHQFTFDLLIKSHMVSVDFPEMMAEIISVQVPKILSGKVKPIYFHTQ

## CCC[C@@H]1Cc2cc(O)ccc2[C@H]2CC[C@@]3(C)[C@@H](C[C@H]4CCC(=O)C[C@]43O)[C@H]12 [Compound 10, (7α,16β,17α)-3,17-dihydroxy-7-propyl-16,24-cyclo-19,21-dinorchola-1,3,5(10)-trien-22-one]
[1]
  PR-B ant anteff: 0.55
  IC50: 3.7 nM
Ovulation [2]; intact regularly cycling female rats
  minimal active dose (MAD) to inhibit ovulation: 0.1 mg/kg per day
Ovulation [2]; rat, p.o.
  Ovulation Inhibition (rat) MAD p.o.: 0.10 mg/kg · day
PR-A [3]
  IC50: 27 nM
[4]; p.o.
  Lordosis (rat) MAD p.o.: 0.14 mg/kg · day
[4]; rat
  response in the lordosis model: near full agonist response
[5]
  behaviour on vaginal tissue, cholesterol metabolism and bone (bone mineral density, osteocalcin): behaves as an estrogen receptor agonist
[5]; 4 weeks, oral and subcutaneous in gelatine/mannitol
  circulating levels of LH and FSH: effectively suppress
[5]; daily oral dosing for 4 weeks, FIG. 1
  stimulation of rat uterine tissue (uterine weight): only mildly stimulates
Vaginal tissue
  Allen-Doisy (rat) MAD p.o.: […]
ERβ [6]
  activity at ERβ in words: full antagonist
  ERβ ant anteff: 0.83
  IC50: 8.4 nM
ERα [7]
  ERα ago eff: […]
ERα [7]; low nanomolar range
  activity at ERα in words: […]
[8]; agonist efficacy
  PR-B ago eff: 0.49
[8]; nanomolar activity
  activity at PR-B in words: […]
[8]; read-out: EC50 for progesterone receptor B (PR-B)
  EC50: 3.8 nM
ERα [9]; antagonist efficacy
  ERα ant anteff: 0.47
ERβ [10]
  EC50: > 10000 nM
Bone mineral density
  AOST BMD (rat) MAD p.o.: 0.12 mg/kg · day
[11]
  Cmax: 16 nM
endometrium
  endometrial histopathology scores: mostly atrophic or inactive endometrium
  endometrial hyperplasia: no signs of hyperplasia
[12]; 0.1 mg/kg
  minor defects (wavy ribs) incidence: […]
[12]; treated groups
  major fetal defects: No major defects
PR-A [13]; agonist efficacy
  PR-A ago eff: 0.46
PR-A [13]
  EC50: 30 nM
PR-A [13]; nanomolar activity
  activity at PR-A in words: […]
Ovulation [14]
  minimal active dose (MAD) for ovulation inhibition: <= 0.1 mg/kg per day
[15]; female, po
  dosages inducing early resorptions: > 0.3 mg/kg
[15]; female, po, 0.3 mg/kg
  post implantation loss: approx. 80%
[15]; 0.3 mg/kg
  fetal effects: No effects
  teratogenicity: no evidence of teratogenicity
Solubility in water
  solubility in water: very well soluble in water
Androgen receptor (AR)
  IC50: 125 nM

## CCC[C@@H]1Cc2cc(O)ccc2[C@H]2CC[C@@]3(C)[C@@H](C[C@H]4CC[C@H](O)C[C@]43O)[C@H]12 [Org 41621, (7α,16β,17α,22β)-7-propyl-16,24-cyclo-19,21-dinorchola-1,3,5(10)-triene-3,17,22-triol, reference compound]
[1]
  PR-B ant anteff: 0.74
  IC50: 20.8 nM
PR-A [3]
  PR-A ant anteff: 0.85
  IC50: 58.3 nM
ERβ [6]
  ERβ ant anteff: 0.89
  IC50: 3.8 nM
ERα [7]
  ERα ago eff: 0.95
ERα [7]; agonist mode, read-out: ERα ago EC50
  EC50: 0.28 nM
[8]; agonist mode, read-out: PR-B ago EC50
  EC50: > 100 nM
ERα [9]; antagonist mode, read-out: ERα ant IC50
  IC50: > 1000 nM
ERβ [10]
  EC50: > 100 nM
PR-A [13]
  EC50: > 100 nM
[15]; female, po, 0.09 mg/kg
  major fetal abnormalities (ribs, humerus, scapula): 3/273
  post implantation loss: 15%
[15]; female, po, 0.15 mg/kg
  major fetal abnormalities (ribs, humerus, scapula): 11/216
  post implantation loss: 24%
